Here are results for five molecules from US20150050299A1, “METHODS FOR ENHANCING IMMUNE RESPONSE” (priority 2010, published 2015).

The test system of one experiment is 4T1 breast cancer cells. The settings on record: mouse, in vivo; cited from earlier work.
A further experiment deals with L1210 leukemia. Conditions: cited from earlier work.
Another experiment concerns B16F1 cells. Conditions: 0.5 to 2.0% oral; cited from earlier work.
Experiment [1] relates to squamous cell carcinomas (SCCs). It is filed as in vivo. Conditions: agent alone. Here is the method: The combination therapy of polyamine biosynthesis/uptake inhibition was tested against the K6/ODC transgenic mouse murine squamous cell carcinoma (SCC) model recently described.^98 The K6/ODC model was developed to assess whether ODC overexpression was a contributing cause, or an effect of malignant transformation. […] While most skin tumorigenesis models yielded benign squamous papillomas as the predominant tumor type, when the K6/ODC transgene was expressed on the FVB/N strain background, the majority of tumors that developed were aggressive squamous cell carcinomas. These SCCs appeared as early as 5 weeks after treatment and in high multiplicities (up to four tumors per mouse), making this a very efficient model for SCC induction. Using this model, we were thus able to conclude that over-expression of ODC is a sufficient condition for tumor promotion in mouse skin.^99
We conducted an in vivo anti-tumor trial of DFMO combined with either the D-C16-acyl Lys-spm conjugate AMXT 1501 (FIG. 4) or the L-C16-alkyl AMXT 1569 analog (FIG. 5) in the K6/ODC SCC model.
The concentration of AMXT 1501 was 14 μg/ml, or an average daily dose of ˜50-65 μg (equivalent to ˜3 mg/kg/d). […] It is expected that great improvements in the oral bioavailability of AMXT 1501 would result from insightful drug formulation.

The next experiment relates to UVB-induced skin cancer. Conditions: 1% in drinking water for 3 weeks before UVB; untreated control 38%; cited from earlier work.
In experiment [2] the test system is UV-induced tumor challenges. Conditions: splenocytes from UV-irradiated treated mice; without treatment 20 of 24; cited from earlier work.
The subject of experiment [3] is iNOS protein translation. The settings on record: read-out: IC50, iNOS protein translation; peritoneal macrophages; cited from earlier work.
Experiment [4] relates to iNOS protein translation. The settings on record: read-out: IC50, iNOS protein translation; RAW 264.7 cells; cited from earlier work.
In the next experiment the test system is L1210 cells. The settings on record: i.p. 5 mg/kg for 9 days; cited from earlier work.

The structures appear in SMILES notation. Like-named read-outs stand apart in the source and are kept apart here.

In the case of `c1cc(CN2CCCNCCNCCCNCC2)ccc1CN1CCCNCCNCCCNCC1` [AMD3100, plerixafor], in the experiment with 4T1 breast cancer cells, the “growth of transplanted 4T1 cells” value was “significantly reduced”.
Take `CCNCCCNCCCCCCCNCCCNCC` [BEPH, N,N′-bis[3-(ethylamino)-propyl]-1-7-heptane diamine]: the “outcome of L1210 leukemia” value is “not curative” in the experiment on L1210 leukemia (T-cell deficient nude mice) and “cured” in the experiment with L1210 leukemia (immunocompetent C57BL mice). The “effect on tumor or spleen cell polyamine levels” value in the experiment with L1210 leukemia (at the doses used) is “no effect”.
As for `NCCC[C@](N)(C(=O)O)C(F)F` [DFMO, α-difluoromethylornithine], the “macrophage mediated cytolysis of B16F1 cells” value with B16F1 cells is reported as “two-fold augmented”. In experiment [1], the “anti-tumor response to single agent” value was “weak effect”. Further, the “occurrence of skin cancer” value in the experiment with UVB-induced skin cancer was 9%. In addition, the “recipient mice in which tumors grew” value in experiment [2] is reported as 2 of 24.
For the molecule `NCCCNCCCCNCCCN` [spermine], the IC50 was 9 µM in the experiment with iNOS protein translation [3] and 9.2 µM in the experiment on iNOS protein translation [4].
For the molecule `NCCCNCCCCNC(=O)[C@H](O)NC(=O)C[C@@H](O)CCCCN=C(N)N` [sperqualin], the survival result in the experiment with L1210 cells is reported as “more than 60 days”.

By IC50 is commonly meant the midpoint of a concentration-inhibition curve.
